The source of these data is PubChem BioAssay (NCI).

Among the test systems are SR leukemia; HOP-92 NSCLC; MDA-N; COLO 205 colon; OVCAR-8 ovarian; CAKI-1 renal; RXF 393 renal; HCC-2998 colon; SF-295 CNS; NCI-H226 lung; T-47D breast; SK-OV-3 ovarian; 786-0 renal; HCT-116 colon; SF-539 CNS; NCI-H522 lung; BT-549 breast; IGROV1 ovarian; HS 578T breast.
What all share (test): inhibition of tumour cell growth, NCI panel, 48 h

Structures are written as SMILES.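 These data come from cells grown in 96-well plates and exposed to compound for 48 hours at five concentrations. The concentration for full growth arrest is given as TGI.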 Bounds are passed on as bounds.

For `CC(C)CCNC(=O)c1ccc(CNC(=O)/C=C/c2ccc3ccccc3c2)cc1`, the TGI in the assay on SR leukemia, with HOP-92 NSCLC, with MDA-N, in the assay on COLO 205 colon, in the assay with OVCAR-8 ovarian and with CAKI-1 renal was over 100 µM each time. In addition, the TGI in the assay on RXF 393 renal, with HCC-2998 colon, in the assay on SF-295 CNS, in the assay with NCI-H226 lung, with T-47D breast and in the assay with SK-OV-3 ovarian was over 100 µM in each case. The TGI with 786-0 renal and in the assay with HCT-116 colon was over 100 µM in each case.

For `CC(=O)OC(COc1ccc2c(c1)[n+]([O-])nc(N)[n+]2[O-])CN1CCCCC1` (stereo not drawn), the TGI was 70.1 µM in the assay on SR leukemia; over 100 µM in the assay on HOP-92 NSCLC; 30.5 µM with COLO 205 colon; 41 µM in the assay with OVCAR-8 ovarian; over 100 µM with CAKI-1 renal; over 100 µM in the assay on RXF 393 renal. In addition, the TGI in the assay on HCC-2998 colon was 22.5 µM; in the assay with NCI-H226 lung it was 54 µM; in the assay with SF-539 CNS, 39 µM; with NCI-H522 lung, 38.7 µM; in the assay on BT-549 breast, over 100 µM; in the assay with 786-0 renal, 36.6 µM. In addition, the TGI with HCT-116 colon came to 59.2 µM.

`CC1(C)N=C(C(N)=O)c2ncn(Cc3ccccc3)c2N1`: the TGI in the assay with IGROV1 ovarian, in the assay with SR leukemia, with HOP-92 NSCLC, with MDA-N, in the assay with COLO 205 colon and in the assay with OVCAR-8 ovarian was over 100 µM each time. Moreover, the TGI in the assay on CAKI-1 renal, with RXF 393 renal, with HS 578T breast, with HCC-2998 colon, in the assay with SF-295 CNS and in the assay on NCI-H226 lung was over 100 µM each time. Further, the TGI in the assay on SF-539 CNS, in the assay with NCI-H522 lung, in the assay on T-47D breast, in the assay with SK-OV-3 ovarian, in the assay with 786-0 renal and with HCT-116 colon was over 100 µM each time.

For the compound `Cc1n[nH]c(=O)n1/N=C/c1ccco1`, the TGI with COLO 205 colon, with OVCAR-8 ovarian, with CAKI-1 renal, with RXF 393 renal, in the assay on HS 578T breast and with HCC-2998 colon was over 100 µM each time. Moreover, the TGI with SF-295 CNS, in the assay with NCI-H226 lung, with SF-539 CNS, with T-47D breast, with BT-549 breast and in the assay on SK-OV-3 ovarian was over 100 µM throughout. Moreover, the TGI in the assay with 786-0 renal and in the assay on HCT-116 colon was over 100 µM throughout.

Consider `COc1ccc(/C(C)=C2\CCCN(Cc3ccccc3)C2)cc1`, for which the TGI worked out at 94.3 µM with IGROV1 ovarian; 42.2 µM in the assay on SR leukemia; 60.4 µM with HOP-92 NSCLC; 47.7 µM in the assay with MDA-N; 32.5 µM in the assay with COLO 205 colon; 35.9 µM with OVCAR-8 ovarian. Further, the TGI in the assay with CAKI-1 renal came to 58.4 µM; with RXF 393 renal, 43.2 µM; in the assay on HS 578T breast it was 29.2 µM; in the assay on HCC-2998 colon, 44.7 µM; in the assay with SF-295 CNS, 35.1 µM; in the assay on NCI-H226 lung it was 63.6 µM. Further, the TGI in the assay with SF-539 CNS was 35.2 µM; in the assay with NCI-H522 lung, 26.4 µM; in the assay with T-47D breast, 77 µM; with SK-OV-3 ovarian, 80.3 µM; in the assay with 786-0 renal it was 33.9 µM.

For `N#Cc1c(-c2ccccc2)cn(C(=O)c2ccccc2)c1N`, the TGI in the assay with IGROV1 ovarian, in the assay with SR leukemia, in the assay on HOP-92 NSCLC, in the assay on MDA-N, in the assay on COLO 205 colon and with OVCAR-8 ovarian was over 100 µM in each case. The TGI was over 100 µM with HS 578T breast; 0.0659 µM in the assay on HCC-2998 colon; over 100 µM in the assay on SF-295 CNS; over 100 µM in the assay on NCI-H226 lung; over 100 µM with NCI-H522 lung; over 100 µM with SK-OV-3 ovarian. Also, the TGI with 786-0 renal and in the assay with HCT-116 colon was over 100 µM in each case.

Consider `CCOC(=O)c1ccc(N=C2Sc3nc4ccccc4n3C2=Nc2ccc(C(=O)OCC)cc2)cc1`, for which the TGI in the assay on IGROV1 ovarian is 60.4 µM; with HOP-92 NSCLC it was 35.9 µM; in the assay on MDA-N, 65 µM; in the assay on COLO 205 colon it was over 100 µM; in the assay with OVCAR-8 ovarian, 89.7 µM; in the assay on CAKI-1 renal it was 70.6 µM. Moreover, the TGI in the assay with RXF 393 renal was 59.3 µM; in the assay on HS 578T breast, 75.5 µM; in the assay on HCC-2998 colon, over 100 µM; in the assay on SF-295 CNS it was 37.3 µM; with NCI-H226 lung, 73.8 µM; with SF-539 CNS, 41.6 µM. Besides, the TGI in the assay on NCI-H522 lung was over 100 µM; in the assay on T-47D breast, over 100 µM; with SK-OV-3 ovarian it was over 100 µM; in the assay with 786-0 renal, 24.5 µM; in the assay with HCT-116 colon, 19.2 µM.

For the compound `Cc1cc2c(cc1Cl)SC(NNCCO)=NS2(=O)=O`, the TGI with IGROV1 ovarian, in the assay with SR leukemia, with HOP-92 NSCLC, with COLO 205 colon, with OVCAR-8 ovarian and with CAKI-1 renal was over 100 µM throughout. Moreover, the TGI in the assay with RXF 393 renal, with HS 578T breast, in the assay with HCC-2998 colon, in the assay with SF-295 CNS, in the assay on NCI-H226 lung and in the assay on SF-539 CNS was over 100 µM in each case. Also, the TGI in the assay with T-47D breast, in the assay on BT-549 breast, in the assay on SK-OV-3 ovarian, with 786-0 renal and with HCT-116 colon was over 100 µM throughout.

Turning to `COc1nc(=O)[nH]c2c1C(c1ccc([N+](=O)[O-])cc1)c1c(OC)nc(=O)[nH]c1O2`, the TGI with IGROV1 ovarian, with MDA-N, with COLO 205 colon, in the assay on OVCAR-8 ovarian, with CAKI-1 renal and in the assay with RXF 393 renal was over 100 µM each time. Further, the TGI in the assay on HS 578T breast, in the assay on SF-295 CNS, with NCI-H226 lung, in the assay with NCI-H522 lung, in the assay on BT-549 breast and with SK-OV-3 ovarian was over 100 µM each time. In addition, the TGI in the assay with 786-0 renal and in the assay on HCT-116 colon was over 100 µM in each case.

As for `CN1C(=O)C(=Cc2ccc(Br)cc2)C(=O)N(C)C1=O`, the TGI in the assay with HOP-92 NSCLC, with COLO 205 colon, in the assay on CAKI-1 renal, with RXF 393 renal, with HCC-2998 colon and with SF-295 CNS was over 100 µM each time. The TGI in the assay on NCI-H226 lung, in the assay with T-47D breast, in the assay on BT-549 breast, in the assay with SK-OV-3 ovarian, in the assay on 786-0 renal and with HCT-116 colon was over 100 µM throughout.

As to `CNC(=O)O/N=C1\N(C)CN(c2ccccc2)C12CCN(CCCC(=O)c1ccc(F)cc1)CC2`, the TGI is over 100 µM in the assay on IGROV1 ovarian; over 100 µM with SR leukemia; over 100 µM with HOP-92 NSCLC; over 100 µM with MDA-N; 33.2 µM in the assay with COLO 205 colon; over 100 µM with OVCAR-8 ovarian. Moreover, the TGI in the assay with CAKI-1 renal, with RXF 393 renal, with HS 578T breast, in the assay with HCC-2998 colon, with SF-295 CNS and with NCI-H226 lung was over 100 µM throughout. The TGI in the assay on SF-539 CNS, in the assay with NCI-H522 lung, in the assay on T-47D breast, with SK-OV-3 ovarian, in the assay with 786-0 renal and in the assay on HCT-116 colon was over 100 µM in each case.

`c1ccc2cc(C3NCCc4[nH]cnc43)ccc2c1` (stereo not drawn): the TGI with IGROV1 ovarian was over 100 µM; in the assay on SR leukemia, over 100 µM; in the assay on HOP-92 NSCLC it was over 100 µM; in the assay on COLO 205 colon, 62.5 µM; in the assay with OVCAR-8 ovarian it was over 100 µM; with CAKI-1 renal it was over 100 µM. The TGI in the assay with RXF 393 renal, in the assay on HCC-2998 colon, in the assay with SF-295 CNS, in the assay with NCI-H226 lung, with SF-539 CNS and in the assay with NCI-H522 lung was over 100 µM in each case. Also, the TGI with SK-OV-3 ovarian, in the assay on 786-0 renal and with HCT-116 colon was over 100 µM in each case.

As to `COc1ccc2nc3ccc(OC)cc3c(S(=O)Cc3ccccc3)c2c1` (stereo not drawn), the TGI with IGROV1 ovarian is 21.5 µM; in the assay on SR leukemia, over 29.8 µM; in the assay with HOP-92 NSCLC it was over 37.3 µM; in the assay on COLO 205 colon it was 25.9 µM; with OVCAR-8 ovarian it was 12.7 µM; in the assay with CAKI-1 renal, 25.6 µM. The TGI was over 43.5 µM in the assay on RXF 393 renal; 33.8 µM in the assay on HS 578T breast; 38.4 µM in the assay with HCC-2998 colon; 35.4 µM in the assay on SF-295 CNS; 38.5 µM with NCI-H226 lung; 27.2 µM with SF-539 CNS. Further, the TGI was determined as 2.63 µM with NCI-H522 lung; 4.87 µM with T-47D breast; 27.4 µM with BT-549 breast; 33.9 µM in the assay with SK-OV-3 ovarian; 4.78 µM in the assay on 786-0 renal; 6.3 µM in the assay with HCT-116 colon.

As to `Nc1c(F)c(F)c2c(c1F)N(CCCCCl)c1ccccc1S2`, the TGI with IGROV1 ovarian, in the assay on SR leukemia, in the assay with HOP-92 NSCLC, in the assay on COLO 205 colon, in the assay on CAKI-1 renal and in the assay on RXF 393 renal was over 100 µM throughout. The TGI with HS 578T breast, in the assay with HCC-2998 colon, in the assay on SF-295 CNS, in the assay with NCI-H226 lung, with SF-539 CNS and with NCI-H522 lung was over 100 µM in each case. For the same compound, the TGI with T-47D breast, with BT-549 breast, in the assay with SK-OV-3 ovarian, in the assay with 786-0 renal and in the assay on HCT-116 colon was over 100 µM throughout.
